Experimental data as given in paper PMC7211198, “Phase 1b study of a small molecule antagonist of human chemokine (C-C motif) receptor 2 (PF-04136309) in combination with nab-paclitaxel/gemcitabine in first-line treatment of metastatic pancreatic ductal adenocarcinoma” (Investigational New Drugs, 2019).

Test: Safety and tolerability (TEAEs, SAEs, DLTs, RP2D) in phase Ib study
Type: in vivo, human
Settings: 500 mg BID + nab-P/Gem
Source text: Safety assessments included collection of adverse events (AEs), serious AEs (SAEs), vital signs and physical examination, electrocardiogram (12-lead), laboratory assessments, including pregnancy test, and verification of concomitant treatments. A patient was considered as DLT-evaluable if the patient experienced a DLT or if otherwise, in the absence of a DLT, the patient received at least 85% of the planned doses of each study drug in the first 28-day cycle. DLTs were defined as any of the following events occurring in the first cycle of treatment (days 1 through 28) and attributed (i.e., judged to be at least possibly related) to the combination of PF-04136309 plus nab-paclitaxel/gemcitabine, where relationship with the combination could not be ruled out. DLTs were hematologic events of grade 4 neutropenia lasting >5 days; febrile neutropenia; grade ≥ 3 neutropenic infection; grade ≥ 3 thrombocytopenia with grade ≥ 2 bleeding; grade 4 thrombocytopenia; and nonhematologic events of grade 3 toxicities. Exceptions included nausea and vomiting responding to prophylaxis and/or treatment and lasting <7 days from each chemotherapy infusion period; diarrhea responding to treatment and lasting <7 days; grade 3 fatigue lasting <7 days; grade 3 QT interval corrected for heart rate prolongation (>500 msec) persisting after correction of any reversible causes; and/or grade 3 aspartate aminotransferase (AST) and/or alanine aminotransferase (ALT) increase lasting ≤7 days. All grade 4 toxicities and a delay of >2 weeks in receiving the next scheduled cycle due to persistent treatment-related toxicities were considered DLTs. AEs meeting DLT criteria in the dose-expansion phase included grade 3 events of diarrhea, hypokalemia, and dysesthesia and grade 4 hypoxia. […] AEs were graded according to the National Cancer Institute Common Terminology Criteria for Adverse Events, version 4.03.

O=C(NCC(=O)N1CC[C@H](N[C@H]2CC[C@@](O)(c3ccc(-c4ncccn4)cn3)CC2)C1)c1cccc(C(F)(F)F)c1 [PF-04136309]
DLT (n = 17, first cycle (days 1 through 28)): 3 (17.6) n (%) | ALT increase, grade ≥3 (n = 17, treatment-related TEAE): 3 (17.6) n (%) | AST increase, grade ≥3 (n = 17, treatment-related TEAE): 3 (17.6) n (%) | Anemia, grade ≥3 (n = 17, treatment-related TEAE): 4 (23.5) n (%) | Fatigue, grade ≥3 (n = 17, treatment-related TEAE): 4 (23.5) n (%) | Leukopenia, grade ≥3 (n = 17, treatment-related TEAE): 2 (11.8) n (%) | Lymphopenia, grade ≥3 (n = 17, treatment-related TEAE): 4 (23.5) n (%) | Neutropenia, grade ≥3 (n = 17, treatment-related TEAE): 2 (11.8) n (%) | Abdominal pain, Grade 1 (all-causality SAE): 0 n (%) | Abdominal pain, Grade 2 (all-causality SAE): 0 n (%) | Abdominal pain, Grade 3 (all-causality SAE): 2 (11.8) n (%) | Abdominal pain, Grade 4 (all-causality SAE): 0 n (%) | Abdominal pain, Grade 5 (all-causality SAE): 0 n (%) | Abdominal pain, Total (all-causality SAE): 2 (11.8) n (%) | Any SAE, Grade 1 (all-causality SAE): 1 (5.9) n (%) | Any SAE, Grade 2 (all-causality SAE): 1 (5.9) n (%) | Any SAE, Grade 3 (all-causality SAE): 7 (41.2) n (%) | Any SAE, Grade 4 (all-causality SAE): 1 (5.9) n (%) | Any SAE, Grade 5 (all-causality SAE): 1 (5.9) n (%) | Any SAE, Total (all-causality SAE): 11 (64.7) n (%) | Chest pain, Grade 1 (all-causality SAE): 0 n (%) | Chest pain, Grade 2 (all-causality SAE): 0 n (%) | Chest pain, Grade 3 (all-causality SAE): 1 (5.9) n (%) | Chest pain, Grade 4 (all-causality SAE): 0 n (%) | Chest pain, Grade 5 (all-causality SAE): 0 n (%) | Chest pain, Total (all-causality SAE): 1 (5.9) n (%) | Dyspnea, Grade 1 (all-causality SAE): 0 n (%) | Dyspnea, Grade 2 (all-causality SAE): 0 n (%) | Dyspnea, Grade 3 (all-causality SAE): 1 (5.9) n (%) | Dyspnea, Grade 4 (all-causality SAE): 0 n (%) | Dyspnea, Grade 5 (all-causality SAE): 0 n (%) | Dyspnea, Total (all-causality SAE): 1 (5.9) n (%) | Episcleritis, Grade 1 (all-causality SAE): 0 n (%) | Episcleritis, Grade 2 (all-causality SAE): 1 (5.9) n (%) | Episcleritis, Grade 3 (all-causality SAE): 0 n (%) | Episcleritis, Grade 4 (all-causality SAE): 0 n (%) | Episcleritis, Grade 5 (all-causality SAE): 0 n (%) | Episcleritis, Total (all-causality SAE): 1 (5.9) n (%) | Hypoxia, Grade 1 (all-causality SAE): 0 n (%) | Hypoxia, Grade 2 (all-causality SAE): 0 n (%) | Hypoxia, Grade 3 (all-causality SAE): 0 n (%) | Hypoxia, Grade 4 (all-causality SAE): 1 (5.9) n (%) | Hypoxia, Grade 5 (all-causality SAE): 0 n (%) | Hypoxia, Total (all-causality SAE): 1 (5.9) n (%) | Klebsiella bacteremia, Grade 1 (all-causality SAE): 0 n (%) | Klebsiella bacteremia, Grade 2 (all-causality SAE): 0 n (%) | Klebsiella bacteremia, Grade 3 (all-causality SAE): 1 (5.9) n (%) | Klebsiella bacteremia, Grade 4 (all-causality SAE): 0 n (%) | Klebsiella bacteremia, Grade 5 (all-causality SAE): 0 n (%) | Klebsiella bacteremia, Total (all-causality SAE): 1 (5.9) n (%) | Liver abscess, Grade 1 (all-causality SAE): 0 n (%) | Liver abscess, Grade 2 (all-causality SAE): 0 n (%) | Liver abscess, Grade 3 (all-causality SAE): 1 (5.9) n (%) | Liver abscess, Grade 4 (all-causality SAE): 0 n (%) | Liver abscess, Grade 5 (all-causality SAE): 0 n (%) | Liver abscess, Total (all-causality SAE): 1 (5.9) n (%) | Musculoskeletal pain, Grade 1 (all-causality SAE): 0 n (%) | Musculoskeletal pain, Grade 2 (all-causality SAE): 0 n (%) | Musculoskeletal pain, Grade 3 (all-causality SAE): 1 (5.9) n (%) | Musculoskeletal pain, Grade 4 (all-causality SAE): 0 n (%) | Musculoskeletal pain, Grade 5 (all-causality SAE): 0 n (%) | Musculoskeletal pain, Total (all-causality SAE): 1 (5.9) n (%) | Neck pain, Grade 1 (all-causality SAE): 0 n (%) | Neck pain, Grade 2 (all-causality SAE): 0 n (%) | Neck pain, Grade 3 (all-causality SAE): 1 (5.9) n (%) | Neck pain, Grade 4 (all-causality SAE): 0 n (%) | Neck pain, Grade 5 (all-causality SAE): 0 n (%) | Neck pain, Total (all-causality SAE): 1 (5.9) n (%) | Pneumonia, Grade 1 (all-causality SAE): 0 n (%) | Pneumonia, Grade 2 (all-causality SAE): 0 n (%) | Pneumonia, Grade 3 (all-causality SAE): 0 n (%) | Pneumonia, Grade 4 (all-causality SAE): 0 n (%) | Pneumonia, Grade 5 (all-causality SAE): 1 (5.9) n (%) | Pneumonia, Total (all-causality SAE): 1 (5.9) n (%) | Pneumonitis, Grade 1 (all-causality SAE): 0 n (%) | Pneumonitis, Grade 2 (all-causality SAE): 0 n (%) | Pneumonitis, Grade 3 (all-causality SAE): 3 (17.6) n (%) | Pneumonitis, Grade 4 (all-causality SAE): 0 n (%) | Pneumonitis, Grade 5 (all-causality SAE): 0 n (%) | Pneumonitis, Total (all-causality SAE): 3 (17.6) n (%) | Pyrexia, Grade 1 (all-causality SAE): 1 (5.9) n (%) | Pyrexia, Grade 2 (all-causality SAE): 1 (5.9) n (%) | Pyrexia, Grade 3 (all-causality SAE): 0 n (%) | Pyrexia, Grade 4 (all-causality SAE): 0 n (%) | Pyrexia, Grade 5 (all-causality SAE): 0 n (%) | Pyrexia, Total (all-causality SAE): 2 (11.8) n (%) | Small intestinal obstruction, Grade 1 (all-causality SAE): 0 n (%) | Small intestinal obstruction, Grade 2 (all-causality SAE): 0 n (%) | Small intestinal obstruction, Grade 3 (all-causality SAE): 1 (5.9) n (%) | Small intestinal obstruction, Grade 4 (all-causality SAE): 0 n (%) | Small intestinal obstruction, Grade 5 (all-causality SAE): 0 n (%) | Small intestinal obstruction, Total (all-causality SAE): 1 (5.9) n (%) | ALT increase, Grade 1 (all-causality TEAE): 1 (5.9) n (%) | ALT increase, Grade 2 (all-causality TEAE): 2 (11.8) n (%) | ALT increase, Grade 3 (all-causality TEAE): 3 (17.6) n (%) | ALT increase, Grade 4 (all-causality TEAE): 1 (5.9) n (%) | ALT increase, Grade 5 (all-causality TEAE): 0 n (%) | ALT increase, Total (all-causality TEAE): 7 (41.2) n (%) | AST increase, Grade 1 (all-causality TEAE): 0 n (%) | AST increase, Grade 2 (all-causality TEAE): 1 (5.9) n (%) | AST increase, Grade 3 (all-causality TEAE): 5 (29.4) n (%) | AST increase, Grade 4 (all-causality TEAE): 0 n (%) | AST increase, Grade 5 (all-causality TEAE): 0 n (%) | AST increase, Total (all-causality TEAE): 6 (35.3) n (%) | Abdominal pain, Grade 1 (all-causality TEAE): 0 n (%) | Abdominal pain, Grade 2 (all-causality TEAE): 3 (17.6) n (%) | Abdominal pain, Grade 3 (all-causality TEAE): 3 (17.6) n (%) | Abdominal pain, Grade 4 (all-causality TEAE): 0 n (%) | Abdominal pain, Grade 5 (all-causality TEAE): 0 n (%) | Abdominal pain, Total (all-causality TEAE): 6 (35.3) n (%) | Alopecia, Grade 1 (all-causality TEAE): 7 (41.2) n (%) | Alopecia, Grade 2 (all-causality TEAE): 3 (17.6) n (%) | Alopecia, Grade 3 (all-causality TEAE): 0 n (%)
